Source: patent US20190002825A1, “Method for Inducing Targeted Differentiation of Human Stem Cells Toward Hepatic Cells” (TRANSCEND CYTOTHERAPY CO., LTD, priority 2015, published 2019)

Key:
Wnt signaling pathway = conditions: cited from earlier work
[1] = in vivo; cited from earlier work
[2] = test system: PKC, cAMP-dependent protein kinases, MLCK and PAK; conditions: cited from earlier work
[3] = test system: human embryonic stem cells (hESCs); conditions: cited from earlier work
ROCK = conditions: cell-free assays; cited from earlier work
[4] = test system: CDC2, ERK2 and other kinases; conditions: cited from earlier work
ALK4 = target: T1, ALK4 (Homo sapiens, UniProt P36896); conditions: cited from earlier work
T1 sequence (P36896 24-505): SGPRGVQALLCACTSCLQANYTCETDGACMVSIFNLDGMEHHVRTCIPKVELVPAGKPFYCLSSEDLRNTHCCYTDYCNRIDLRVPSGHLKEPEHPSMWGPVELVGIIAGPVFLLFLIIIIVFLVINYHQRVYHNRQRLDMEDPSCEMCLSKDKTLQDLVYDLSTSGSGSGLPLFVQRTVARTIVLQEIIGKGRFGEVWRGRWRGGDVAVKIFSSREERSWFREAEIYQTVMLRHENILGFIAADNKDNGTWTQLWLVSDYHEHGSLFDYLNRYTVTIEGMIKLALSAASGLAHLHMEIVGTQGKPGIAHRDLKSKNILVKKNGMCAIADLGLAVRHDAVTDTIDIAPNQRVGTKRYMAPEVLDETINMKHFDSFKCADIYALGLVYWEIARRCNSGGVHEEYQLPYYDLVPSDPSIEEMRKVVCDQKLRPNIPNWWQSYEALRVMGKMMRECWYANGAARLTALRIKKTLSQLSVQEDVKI

ALK2, ALK3 and ALK6 = conditions: cited from earlier work
ALK1, ALK2, ALK3 or ALK6 = conditions: cited from earlier work
ALK7 = target: T2, ALK7 (Homo sapiens, UniProt Q8NER5); conditions: in words; cited from earlier work
T2 sequence (Q8NER5 21-493): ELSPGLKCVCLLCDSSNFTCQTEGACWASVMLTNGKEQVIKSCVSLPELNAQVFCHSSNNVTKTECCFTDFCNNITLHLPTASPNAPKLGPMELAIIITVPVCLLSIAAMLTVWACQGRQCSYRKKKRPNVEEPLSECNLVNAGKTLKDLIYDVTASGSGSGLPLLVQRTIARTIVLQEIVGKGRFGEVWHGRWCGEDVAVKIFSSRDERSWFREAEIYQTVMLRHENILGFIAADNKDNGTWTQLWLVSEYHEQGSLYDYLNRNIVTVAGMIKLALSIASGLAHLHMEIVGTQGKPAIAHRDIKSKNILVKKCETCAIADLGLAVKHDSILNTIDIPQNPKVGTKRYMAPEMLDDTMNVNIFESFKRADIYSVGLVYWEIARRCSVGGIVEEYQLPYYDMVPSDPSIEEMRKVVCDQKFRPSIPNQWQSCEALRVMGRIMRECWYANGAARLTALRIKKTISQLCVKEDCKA

ROCK1 = ROCK1 (Homo sapiens, UniProt Q13464); conditions: cited from earlier work
GSK-3β = GSK-3β (Homo sapiens, UniProt P49841); conditions: cited from earlier work
[5] = test system: p38, MAPK and other kinases; conditions: cited from earlier work
CYP1A2 = assay type: cell-based, human
GSK-3α = GSK-3α (Homo sapiens, UniProt P49840); conditions: cited from earlier work
[6] = target: TGF-β receptor type II (TβRII) (Homo sapiens, UniProt P37173); conditions: cell-free assays; cited from earlier work
BMP type II receptors = conditions: cited from earlier work
[7] = test system: activin type II receptors; conditions: cited from earlier work
TGF-β type II receptors = TGF-β type II receptors (Homo sapiens, UniProt P37173); conditions: cited from earlier work
TGF-βRII = TGF-βRII (Homo sapiens, UniProt P37173); conditions: cited from earlier work
[8] = in vivo; cited from earlier work; remark: listed apart in the source

Sequence of TGF-βRII (P37173 23-567): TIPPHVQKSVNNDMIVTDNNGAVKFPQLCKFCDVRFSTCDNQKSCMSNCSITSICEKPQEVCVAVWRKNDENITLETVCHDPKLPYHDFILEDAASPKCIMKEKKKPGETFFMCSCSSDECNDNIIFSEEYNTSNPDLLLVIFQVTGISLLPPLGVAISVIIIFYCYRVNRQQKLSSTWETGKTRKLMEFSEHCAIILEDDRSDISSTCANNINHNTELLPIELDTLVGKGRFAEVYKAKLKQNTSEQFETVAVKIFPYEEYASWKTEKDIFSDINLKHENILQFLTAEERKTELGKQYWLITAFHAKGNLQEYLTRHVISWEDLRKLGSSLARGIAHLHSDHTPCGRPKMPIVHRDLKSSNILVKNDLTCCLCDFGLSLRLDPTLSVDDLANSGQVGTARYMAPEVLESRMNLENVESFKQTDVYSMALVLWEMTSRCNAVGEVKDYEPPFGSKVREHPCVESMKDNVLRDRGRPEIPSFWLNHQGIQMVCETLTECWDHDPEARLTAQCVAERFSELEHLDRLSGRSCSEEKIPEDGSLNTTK
Sequence of TGF-β type II receptors (P37173 23-567): as above
Sequence of TGF-β receptor type II (TβRII) (P37173 23-567): as above
Sequence of ROCK1 (Q13464 whole entry): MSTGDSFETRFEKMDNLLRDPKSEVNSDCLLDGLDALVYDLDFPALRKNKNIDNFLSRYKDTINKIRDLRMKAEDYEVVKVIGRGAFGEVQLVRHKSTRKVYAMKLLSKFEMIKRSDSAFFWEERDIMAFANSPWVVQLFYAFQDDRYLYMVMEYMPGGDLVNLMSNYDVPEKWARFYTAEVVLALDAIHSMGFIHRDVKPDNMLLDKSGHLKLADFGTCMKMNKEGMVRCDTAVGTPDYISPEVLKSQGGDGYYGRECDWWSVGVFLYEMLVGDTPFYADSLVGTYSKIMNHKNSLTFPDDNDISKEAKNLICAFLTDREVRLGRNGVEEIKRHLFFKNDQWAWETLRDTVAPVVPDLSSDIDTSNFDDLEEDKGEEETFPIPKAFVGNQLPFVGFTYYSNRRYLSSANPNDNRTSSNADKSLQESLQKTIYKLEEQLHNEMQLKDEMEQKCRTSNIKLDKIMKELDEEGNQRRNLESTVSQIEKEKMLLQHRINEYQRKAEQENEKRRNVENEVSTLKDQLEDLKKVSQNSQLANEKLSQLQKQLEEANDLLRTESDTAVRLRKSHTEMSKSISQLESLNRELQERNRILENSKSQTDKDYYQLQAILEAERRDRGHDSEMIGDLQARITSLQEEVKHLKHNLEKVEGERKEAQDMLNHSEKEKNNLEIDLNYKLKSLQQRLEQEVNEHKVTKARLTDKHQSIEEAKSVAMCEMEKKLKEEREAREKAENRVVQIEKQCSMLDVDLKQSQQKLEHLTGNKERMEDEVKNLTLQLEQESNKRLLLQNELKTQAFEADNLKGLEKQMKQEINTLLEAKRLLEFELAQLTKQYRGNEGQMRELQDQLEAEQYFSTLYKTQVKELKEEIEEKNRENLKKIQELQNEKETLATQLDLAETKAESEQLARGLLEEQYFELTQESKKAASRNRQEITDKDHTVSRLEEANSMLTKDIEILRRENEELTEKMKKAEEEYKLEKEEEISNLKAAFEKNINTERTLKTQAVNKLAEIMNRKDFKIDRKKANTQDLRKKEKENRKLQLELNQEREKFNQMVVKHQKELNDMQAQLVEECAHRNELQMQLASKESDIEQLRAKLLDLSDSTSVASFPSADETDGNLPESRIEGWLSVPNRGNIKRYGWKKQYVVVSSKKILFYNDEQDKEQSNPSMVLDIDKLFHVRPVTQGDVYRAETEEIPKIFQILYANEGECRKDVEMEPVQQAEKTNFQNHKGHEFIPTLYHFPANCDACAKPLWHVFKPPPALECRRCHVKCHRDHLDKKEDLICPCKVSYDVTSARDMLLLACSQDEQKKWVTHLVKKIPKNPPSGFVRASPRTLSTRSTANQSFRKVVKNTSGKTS
Sequence of GSK-3α (P49840 whole entry, species assumed): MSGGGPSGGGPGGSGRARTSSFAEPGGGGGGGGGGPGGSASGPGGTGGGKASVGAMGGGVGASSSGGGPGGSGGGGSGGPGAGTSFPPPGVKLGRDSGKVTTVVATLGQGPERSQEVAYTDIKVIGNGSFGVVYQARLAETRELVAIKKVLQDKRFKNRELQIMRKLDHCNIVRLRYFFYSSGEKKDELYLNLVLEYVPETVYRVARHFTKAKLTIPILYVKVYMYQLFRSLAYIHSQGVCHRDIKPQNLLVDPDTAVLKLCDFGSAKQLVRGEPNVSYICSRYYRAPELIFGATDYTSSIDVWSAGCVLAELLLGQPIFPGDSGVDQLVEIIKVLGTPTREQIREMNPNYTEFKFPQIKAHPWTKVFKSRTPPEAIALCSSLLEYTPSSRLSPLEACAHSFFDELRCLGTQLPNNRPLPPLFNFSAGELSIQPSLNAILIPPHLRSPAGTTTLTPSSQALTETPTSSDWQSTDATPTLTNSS
Sequence of GSK-3β (P49841 whole entry): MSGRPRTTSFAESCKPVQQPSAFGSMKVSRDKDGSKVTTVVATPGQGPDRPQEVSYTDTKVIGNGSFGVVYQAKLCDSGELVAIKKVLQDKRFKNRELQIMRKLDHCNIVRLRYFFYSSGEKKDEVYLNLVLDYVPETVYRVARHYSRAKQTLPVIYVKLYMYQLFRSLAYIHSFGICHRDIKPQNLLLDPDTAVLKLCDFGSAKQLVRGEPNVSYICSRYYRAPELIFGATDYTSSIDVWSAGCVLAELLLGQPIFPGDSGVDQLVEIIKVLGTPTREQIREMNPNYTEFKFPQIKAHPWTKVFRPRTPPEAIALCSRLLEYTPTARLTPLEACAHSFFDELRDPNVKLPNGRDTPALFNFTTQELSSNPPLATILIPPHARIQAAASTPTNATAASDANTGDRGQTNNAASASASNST

CN1CCN(S(=O)(=O)c2ccc(-c3cnc(N)c(C(=O)Nc4cccnc4)n3)cc2)CC1 [AZD2858]
effect on the Wnt signaling pathway (Wnt signaling pathway): enhances

Cc1cccc(-c2[nH]c(CNc3ccccc3F)nc2-c2ccc3ncnn3c2)n1 [EW-7197]
oral bioavailability [1]: orally bioavailable

C[C@@H](N)[C@H]1CC[C@H](C(=O)Nc2ccncc2)CC1 [Y-27632]
times more inhibitory on ROCK1 than on other kinases including PKC, cAMP-dependent protein kinases, MLCK and PAK [2]: ≥ 200 times

O=C(NCc1ccccc1)c1csc(Nc2ccncn2)n1 [Thiazovivin]
survival of human embryonic stem cells (hESCs) after single cell isolation [3]: promotes the survival
IC50 (ROCK): 500 nM

Cc1cnc(-c2cnc(NCCNc3ccc(C#N)cn3)nc2-c2ccc(Cl)cc2Cl)[nH]1 [CHIR-99021]
times more inhibitory on GSK-3α and GSK-3β than on CDC2, ERK2 and other kinases [4]: 500 times

Cc1cccc(-c2[nH]c(C(C)(C)C)nc2-c2ccc3nccnc3c2)n1 [SB525334]
effect on ALK4, times lower than on ALK5 (ALK4): 4 times
activity on ALK2, ALK3 and ALK6 (ALK2, ALK3 and ALK6): no activity

Cc1cccc(-c2[nH]c(C(C)(C)C)nc2-c2ccc3c(c2)OCO3)n1 [SB505124]
inhibition of ALK1, ALK2, ALK3 or ALK6 (ALK1, ALK2, ALK3 or ALK6): does not inhibit
IC50 (ALK4; cell-free assays where stated): 129 nM
inhibition of ALK7 (ALK7): inhibits

O=C(NCc1cccc(O)c1)Nc1nc(-c2ccncc2)cs1 [RKI-1447]
IC50 (ROCK1): 14.5 nM

Nc1cccc(-c2cc3c(Oc4cccc(O)c4)ncnc3[nH]2)c1 [TWS119]
IC50 (GSK-3β): 30 nM

NC(=O)c1ccc(-c2nc(-c3ccc4c(c3)OCO4)c(-c3ccccn3)[nH]2)cc1 [SB-431542]
times more inhibitory on ALK5 than on p38, MAPK and other kinases [5]: 100 times

COc1ccc2[nH]c([S+]([O-])Cc3ncc(C)c(OC)c3C)nc2c1 (centres unmarked) [omeprazole]
activity of P450 enzyme (CYP1A2) when induced (CYP1A2): enhanced

CHIR-98014
IC50 (GSK-3α): 0.65 nM

c1ccc(-c2nn3c(c2-c2ccnc4cc(OCCN5CCOCC5)ccc24)CCC3)nc1 [LY2109761]
Ki [6]: 300 nM

O=C(NC1CCOCC1)c1ccc(-c2cc(-c3c[nH]nc3-c3ccccn3)ccn2)cc1 [GW788388]
inhibition of the activity of BMP type II receptors (BMP type II receptors): does not inhibit
inhibition of the activity of activin type II receptors [7]: inhibits
inhibition of the activity of TGF-β type II receptors (TGF-β type II receptors): inhibits

SD-208
times more selective on TGF-βRI than on TGF-βRII (TGF-βRII): ≥ 100 times

N#Cc1ccc2[nH]c(O)c(-c3ccc(CN4CCOCC4)cn3)c2c1 [AZD1080]
permeability to the brain [8]: permeable to the brain
oral bioavailability [1]: orally bioavailable
